Reference: the supplement of paper PMC4862054

What was measured:
Conditions in all cases: incubation time: 72 h
CAL-148 [1] = experiment: normalised viability (% of control), CellTiter-Blue; higher = more viable cells (about 100 = DMSO control)
Description: (§1)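 DSRT, CellTiter-Blue viability, 72 h incubation. Signal is normalised to DMSO and benzethonium chloride controls. Value is the normalised response at dose 6.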

CAL-51 [2] = experiment: as above
Description: as §1

DU-4475 [3] = experiment: as above
Description: as §1

CAL-85-1 [4] = experiment: as above
Description: as §1

MDA-MB-453 [5] = experiment: as above
Description: as §1

HDQ-P1 [6] = experiment: as above
Description: as §1

SK-BR-3 = experiment: normalised viability (% of control), CellTiter-Blue; higher = more viable cells (100 = DMSO, 0 = benzethonium chloride kill control)
Description: (§2)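 DSRT, CellTiter-Blue viability, 72 h incubation. Signal is normalised to DMSO and benzethonium chloride controls. Value is the normalised response at dose 1.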

BT-474 = experiment: as above
Description: as §2

CAL-148 [7] = experiment: as above
Description: as §2

CAL-51 [8] = experiment: as above
Description: as §2

HCC1143 = experiment: as above
Description: as §2

MDA-MB-231 = experiment: as above
Description: as §2

DU-4475 [9] = experiment: as above
Description: as §2

BT-549 = experiment: as above
Description: as §2

CAL-85-1 [10] = experiment: as above
Description: as §2

HCC1599 = experiment: as above
Description: as §2

MDA-MB-453 [11] = experiment: as above
Description: as §2

MDA-MB-436 = experiment: as above
Description: as §2

Hs578T = experiment: as above
Description: as §2

MFM-223 [12] = experiment: as above
Description: as §2

MDA-MB-468 = experiment: as above
Description: as §2

CAL-120 = experiment: as above
Description: as §2

HCC1937 [13] = experiment: as above
Description: as §2

HDQ-P1 [14] = experiment: as above
Description: as §2

MCF-10A = experiment: drug sensitivity score (DSS), CellTox Green (DSS (AUC-based score)); higher = stronger drug effect (viability inhibition or cytotoxicity); extreme values may be limits of the assay
Method in brief: (§3)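 Compound was dispensed into 384-well plates at 5 concentrations in 10-fold steps spanning a 10,000-fold range chosen for each compound, and 20 µl of breast cancer cell suspension was added before 72 h of incubation. CellTox Green fluorescence was read at 485/520 nm, followed by CellTiter-Glo luminescence after 10 min at room temperature. Values on each plate were normalised to 0.1 % DMSO and a positive kill control. The drug sensitivity score came from the area under the fitted dose-response curve.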

MFM-223 [15] = experiment: as above
Method in brief: as §3

HCC1937 [16] = experiment: as above
Method in brief: as §3

## CCCCC(=O)OCC(=O)[C@]1(O)Cc2c(O)c3c(c(O)c2[C@@H](O[C@H]2C[C@H](NC(=O)C(F)(F)F)[C@H](O)[C@H](C)O2)C1)C(=O)c1c(OC)cccc1C3=O [Valrubicin]
CAL-148 [1]; 300 nM
  normalised viability: 35.5%
CAL-51 [2]; 300 nM
  normalised viability: 34.5%
DU-4475 [3]; 300 nM
  normalised viability: 23.4%
CAL-85-1 [4]; 300 nM
  normalised viability: 75.1%
MDA-MB-453 [5]; 300 nM
  normalised viability: 73.9%
HDQ-P1 [6]; 300 nM
  normalised viability: 72%
SK-BR-3; 1 nM
  normalised viability: 85.5%
BT-474; 1 nM
  normalised viability: 92.9%
CAL-148 [7]; 1 nM
  normalised viability: 88.8%
CAL-51 [8]; 1 nM
  normalised viability: 89.7%
HCC1143; 1 nM
  normalised viability: 86.5%
MDA-MB-231; 1 nM
  normalised viability: 79.7%
DU-4475 [9]; 1 nM
  normalised viability: 93.9%
BT-549; 1 nM
  normalised viability: 107%
CAL-85-1 [10]; 1 nM
  normalised viability: 83.5%
HCC1599; 1 nM
  normalised viability: 75.7%
MDA-MB-453 [11]; 1 nM
  normalised viability: 97.6%
MDA-MB-436; 1 nM
  normalised viability: 106%
Hs578T; 1 nM
  normalised viability: 103%
MFM-223 [12]; 1 nM
  normalised viability: 90.3%
MDA-MB-468; 1 nM
  normalised viability: 84.3%
CAL-120; 1 nM
  normalised viability: 92.9%
HCC1937 [13]; 1 nM
  normalised viability: 81.6%
HDQ-P1 [14]; 1 nM
  normalised viability: 96.8%
MCF-10A
  drug sensitivity score: 0
MFM-223 [15]
  drug sensitivity score: 0
HCC1937 [16]
  drug sensitivity score: 0

## COc1cc2c(Oc3ccc4[nH]c(C)cc4c3F)ncnc2cc1OCCCN1CCCC1 [Cediranib]
CAL-148 [1]; 30 nM
  normalised viability: 103%
CAL-51 [2]; 30 nM
  normalised viability: 86%
DU-4475 [3]; 30 nM
  normalised viability: 95%
CAL-85-1 [4]; 30 nM
  normalised viability: 90.4%
MDA-MB-453 [5]; 30 nM
  normalised viability: 75.9%
HDQ-P1 [6]; 30 nM
  normalised viability: 72.9%
SK-BR-3; 0.1 nM
  normalised viability: 92.3%
BT-474; 0.1 nM
  normalised viability: 87.8%
CAL-148 [7]; 0.1 nM
  normalised viability: 109%
CAL-51 [8]; 0.1 nM
  normalised viability: 91.3%
HCC1143; 0.1 nM
  normalised viability: 110%
MDA-MB-231; 0.1 nM
  normalised viability: 94.4%
DU-4475 [9]; 0.1 nM
  normalised viability: 91.1%
BT-549; 0.1 nM
  normalised viability: 90.5%
CAL-85-1 [10]; 0.1 nM
  normalised viability: 107%
HCC1599; 0.1 nM
  normalised viability: 82.5%
MDA-MB-453 [11]; 0.1 nM
  normalised viability: 82.5%
MDA-MB-436; 0.1 nM
  normalised viability: 94.8%
Hs578T; 0.1 nM
  normalised viability: 92%
MFM-223 [12]; 0.1 nM
  normalised viability: 101%
MDA-MB-468; 0.1 nM
  normalised viability: 95.8%
CAL-120; 0.1 nM
  normalised viability: 112%
HCC1937 [13]; 0.1 nM
  normalised viability: 113%
HDQ-P1 [14]; 0.1 nM
  normalised viability: 81.1%
MCF-10A
  drug sensitivity score: 0
MFM-223 [15]
  drug sensitivity score: 0
HCC1937 [16]
  drug sensitivity score: 0

## CC1=C(/C=C/C(C)=C/C=C/C(C)=C/C(=O)O)C(C)(C)CCC1 [Tretinoin]
CAL-148 [1]; 300 nM
  normalised viability: 74%
CAL-51 [2]; 300 nM
  normalised viability: 96.2%
DU-4475 [3]; 300 nM
  normalised viability: 91.1%
CAL-85-1 [4]; 300 nM
  normalised viability: 96.6%
MDA-MB-453 [5]; 300 nM
  normalised viability: 91.5%
HDQ-P1 [6]; 300 nM
  normalised viability: 94.9%
SK-BR-3; 1 nM
  normalised viability: 97.7%
BT-474; 1 nM
  normalised viability: 91.1%
CAL-148 [7]; 1 nM
  normalised viability: 103%
CAL-51 [8]; 1 nM
  normalised viability: 93.5%
HCC1143; 1 nM
  normalised viability: 94.9%
MDA-MB-231; 1 nM
  normalised viability: 97.2%
DU-4475 [9]; 1 nM
  normalised viability: 91.8%
BT-549; 1 nM
  normalised viability: 98.4%
CAL-85-1 [10]; 1 nM
  normalised viability: 87.1%
HCC1599; 1 nM
  normalised viability: 99.3%
MDA-MB-453 [11]; 1 nM
  normalised viability: 100%
MDA-MB-436; 1 nM
  normalised viability: 90.4%
Hs578T; 1 nM
  normalised viability: 116%
MFM-223 [12]; 1 nM
  normalised viability: 98%
MDA-MB-468; 1 nM
  normalised viability: 109%
CAL-120; 1 nM
  normalised viability: 86.9%
HCC1937 [13]; 1 nM
  normalised viability: 117%
HDQ-P1 [14]; 1 nM
  normalised viability: 114%
MCF-10A
  drug sensitivity score: 1.81
MFM-223 [15]
  drug sensitivity score: 0
HCC1937 [16]
  drug sensitivity score: 0
